In patent US6479435B1, “Diaryl ethers and processes for their preparation and herbicidal and desiccant compositions containing them” (ISK Americas Incorporated, priority 1997, dated 2002):

Tests used:
Format in all cases: in vivo
[1] = tested on: Johnsongrass (Sorghum halepense, SORHA); assay: Pre-emerge greenhouse herbicide test, phytotoxicity rating; conditions: 14 days after application, rating scale 0-100
Excerpt: (§1) A standard greenhouse herbicide activity screening system was used to evaluate the herbicidal efficacy and crop safety of these test compounds. Six broadleaf weed species including redroot pigweed (Amaranthus retroflexus, AMARE), velvetleaf (Abutilon theophrasti, ABUTH), sicklepod (Cassia obtusifolia, CASOB), ivyleaf morningglory (Ipomoea hederacea, IPOHE), lambsquarters (Chenopodium album, CHEAL) and common ragweed (Ambrosia artemisiifolia L., AMBEL) were used as test species. Four grass weed species including green foxtail (Setaria viridis, SETVI), barnyardgrass (Echinochloa crusgalli, ECHCG), Johnsongrass (Sorghum halepense, SORHA), and large crabgrass (Digitaria sanguinalis, DIGSA) were also used. In addition, three crop species, field corn (Zea mays L., var. Dekalb 535, CORN), soybean (Glycine max L., var. Pella 86, SOY), and upland rice (Oryza sp., var.Tebonnet, RICE) were included.
(§2) All plants were grown in 10 cm square plastic pots which were filled with a sandy loam soil mix. For preemerge tests, seeds were planted one day prior to application of the test compounds. Immediately after application, test units of the pre-emerge applications were watered at the soil surface to incorporate the test materials. Subsequently, these test units were bottom-watered.
(§3) All test compounds were dissolved in acetone and applied to the test units in a volume of 187 l/ha. Test materials were applied at rates ranging from 125 g ai/ha to 1000 g ai/ha using a track sprayer equipped with a TJ8001E even flow flat fan spray nozzle. Plants were arranged on a shelf so that the top of the canopy (post-emerge) or top of the soil surface (pre-emerge) was 40-45 cm below the nozzle. Pressurized air was used to force the test solution through the nozzle as it was mechanically advanced (via electrically driven chain drive) over the top of all test plants/pots. This application simulates a typical commercial field herbicide application.
(§4) At 14 days after application of the test materials, phytotoxicity ratings were recorded. A rating scale of 0-100 was used as previously described in Research Methods in Weed Science, 2nd edition, B. Truelove, Ed., Southern Weed Science Society, Auburn University, Auburn, Ala., 1977. Briefly, “0” corresponds to no damage and “100” corresponds to complete death of all plants in the test unit. This scale was used both to determine efficacy against weed species and damage to crop species. Herbicide activity data for various compounds of this invention, which are shown by compound number in Tables 1-9, are shown in Tables 13 and 14.

[2] = tested on: barnyardgrass (Echinochloa crusgalli, ECHCG); assay: as above; conditions: 14 days after application, rating scale 0-100
Excerpt: as §1, §2, §3, §4

[3] = tested on: green foxtail (Setaria viridis, SETVI); assay: as above; conditions: 14 days after application, rating scale 0-100
Excerpt: as §1, §2, §3, §4

[4] = tested on: ivyleaf morningglory (Ipomoea hederacea, IPOHE); assay: as above; conditions: 14 days after application, rating scale 0-100
Excerpt: as §1, §2, §3, §4

[5] = tested on: lambsquarters (Chenopodium album, CHEAL); assay: as above; conditions: 14 days after application, rating scale 0-100
Excerpt: as §1, §2, §3, §4

[6] = tested on: large crabgrass (Digitaria sanguinalis, DIGSA); assay: as above; conditions: 14 days after application, rating scale 0-100
Excerpt: as §1, §2, §3, §4

[7] = tested on: redroot pigweed (Amaranthus retroflexus, AMARE); assay: as above; conditions: 14 days after application, rating scale 0-100
Excerpt: as §1, §2, §3, §4

[8] = tested on: sicklepod (Cassia obtusifolia, CASOB); assay: as above; conditions: 14 days after application, rating scale 0-100
Excerpt: as §1, §2, §3, §4

[9] = tested on: velvetleaf (Abutilon theophrasti, ABUTH); assay: as above; conditions: 14 days after application, rating scale 0-100
Excerpt: as §1, §2, §3, §4

[10] = tested on: field corn (Zea mays L., var. Dekalb 535, CORN); assay: Pre-emerge greenhouse test, crop damage rating; conditions: 14 days after application, rating scale 0-100
Method in brief: (§5)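 Seeds sown in sandy loam one day before track-sprayer application of acetone solutions at 125–1000 g ai/ha (187 l/ha), then surface-watered to incorporate and bottom-watered. Injury scored visually at 14 days on a 0–100 scale (0 no damage, 100 complete death).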

[11] = tested on: upland rice (Oryza sp., var.Tebonnet, RICE); assay: Pre-emerge greenhouse test, crop damage rating; conditions: 14 days after application, rating scale 0-100
Method in brief: as §5

[12] = tested on: soybean (Glycine max L., var. Pella 86, SOY); assay: Pre-emerge greenhouse test, crop damage rating; parameters: key to SOY crop damage rating: 0 = no damage, 100 = complete death of all plants; conditions: 14 days after application, rating scale 0-100
Method in brief: as §5

[13] = tested on: common ragweed (Ambrosia artemisiifolia L., AMBEL); assay: Post-emerge greenhouse herbicide test, phytotoxicity rating; conditions: 14 days after application, scale 0-100
Excerpt: as §1
as §3, with “Test materials were applied at rates ranging from 125 g ai/ha to 1000 g ai/ha using a track sprayer equipped with a TJ8001E even flow flat fan spray nozzle.” left out
In the post-emerge test, a commercial non-ionic surfactant was also included (0.25% v/v) to enhance wetting of the leaf surfaces Qf target plants at rates ranging from 63 g ai/ha to 1000 g ai/ha. For post-emerge tests, seeds were planted 8-21 days prior to the test to allow emergence and good foliage development prior to application of the test substances. At the time of the post-emerge application, plants of all species were usually at the 2-3 leaf stage of development. Post-emerge test units were always bottom-watered.
as §4

[14] = tested on: Johnsongrass (Sorghum halepense, SORHA); assay: as above; conditions: 14 days after application, scale 0-100
Method in brief: (§6)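 Plants at the 2-3 leaf stage, sown 8-21 days earlier, were track-sprayed post-emergence with compound in acetone plus 0.25% v/v non-ionic surfactant at 63-1000 g ai/ha (187 l/ha). Damage was rated at 14 days on a 0-100 scale (0 none, 100 all plants dead), for both crop injury and weed control.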

[15] = tested on: barnyardgrass (Echinochloa crusgalli, ECHCG); assay: as above; conditions: 14 days after application, scale 0-100
Method in brief: as §6

[16] = tested on: green foxtail (Setaria viridis, SETVI); assay: as above; conditions: 14 days after application, scale 0-100
Method in brief: as §6

[17] = tested on: ivyleaf morningglory (Ipomoea hederacea, IPOHE); assay: as above; conditions: 14 days after application, scale 0-100
Method in brief: as §6

[18] = tested on: lambsquarters (Chenopodium album, CHEAL); assay: as above; conditions: 14 days after application, scale 0-100
Method in brief: as §6

[19] = tested on: large crabgrass (Digitaria sanguinalis, DIGSA); assay: as above; conditions: 14 days after application, scale 0-100
Method in brief: as §6

[20] = tested on: redroot pigweed (Amaranthus retroflexus, AMARE); assay: as above; conditions: 14 days after application, scale 0-100
Method in brief: as §6

[21] = tested on: sicklepod (Cassia obtusifolia, CASOB); assay: as above; conditions: 14 days after application, scale 0-100
Method in brief: as §6

[22] = tested on: velvetleaf (Abutilon theophrasti, ABUTH); assay: as above; conditions: 14 days after application, scale 0-100
Method in brief: as §6

[23] = tested on: field corn (Zea mays L., var. Dekalb 535, CORN); assay: Post-emerge greenhouse test, crop damage rating; conditions: 14 days after application, scale 0-100
Method in brief: as §6

[24] = tested on: upland rice (Oryza sp., var.Tebonnet, RICE); assay: Post-emerge greenhouse test, crop damage rating; conditions: 14 days after application, scale 0-100
Method in brief: as §6

[25] = tested on: soybean (Glycine max L., var. Pella 86, SOY); assay: Post-emerge greenhouse test, crop damage rating; parameters: key to crop damage rating SOY: 0-100 scale: 0 = no damage, 100 = complete death of all plants; conditions: 14 days after application, scale 0-100
Method in brief: as §6

CSc1cccnc1Oc1cc(-n2c(=O)n3n(c2=S)CCCC3)c(F)cc1Cl [Compound 8-43]
SORHA phytotoxicity rating ([1]; Rate 125 g al/ha): 0 | SORHA phytotoxicity rating ([1]; Rate 250 g al/ha): 0 | ECHCG phytotoxicity rating ([2]; Rate 125 g al/ha): 0 | ECHCG phytotoxicity rating ([2]; Rate 250 g al/ha): 0 | SETVI phytotoxicity rating ([3]; Rate 125 g al/ha): 100 | SETVI phytotoxicity rating ([3]; Rate 250 g al/ha): 100 | IPOHE phytotoxicity rating ([4]; Rate 125 g al/ha): 0 | IPOHE phytotoxicity rating ([4]; Rate 250 g al/ha): 20 | CHEAL phytotoxicity rating ([5]; Rate 125 g al/ha): 100 | CHEAL phytotoxicity rating ([5]; Rate 250 g al/ha): 100 | DIGSA phytotoxicity rating ([6]; Rate 125 g al/ha): 90 | DIGSA phytotoxicity rating ([6]; Rate 250 g al/ha): 100 | AMARE phytotoxicity rating ([7]; Rate 125 g al/ha): 20 | AMARE phytotoxicity rating ([7]; Rate 250 g al/ha): 70 | CASOB phytotoxicity rating ([8]; Rate 125 g al/ha): 20 | CASOB phytotoxicity rating ([8]; Rate 250 g al/ha): 30 | ABUTH phytotoxicity rating ([9]; Rate 125 g al/ha): 10 | ABUTH phytotoxicity rating ([9]; Rate 250 g al/ha): 30 | CORN crop damage rating ([10]; Rate 125 g al/ha): 0 | CORN crop damage rating ([10]; Rate 250 g al/ha): 0 | RICE crop damage rating ([11]; Rate 125 g al/ha): 20 | RICE crop damage rating ([11]; Rate 250 g al/ha): 20 | SOY crop damage rating ([12]; Rate 125 g al/ha): 0 | SOY crop damage rating ([12]; Rate 250 g al/ha): 0 | phytotoxicity rating AMBEL ([13]; rate 63 g ai/ha): 100 | phytotoxicity rating AMBEL ([13]; rate 250 g ai/ha): 100 | phytotoxicity rating SORHA ([14]; rate 63 g ai/ha): 20 | phytotoxicity rating SORHA ([14]; rate 250 g ai/ha): 30 | phytotoxicity rating ECHCG ([15]; rate 63 g ai/ha): 20 | phytotoxicity rating ECHCG ([15]; rate 250 g ai/ha): 30 | phytotoxicity rating SETVI ([16]; rate 63 g ai/ha): 40 | phytotoxicity rating SETVI ([16]; rate 250 g ai/ha): 60 | phytotoxicity rating IPOHE ([17]; rate 63 g ai/ha): 100 | phytotoxicity rating IPOHE ([17]; rate 250 g ai/ha): 100 | phytotoxicity rating CHEAL ([18]; rate 63 g ai/ha): 90 | phytotoxicity rating CHEAL ([18]; rate 250 g ai/ha): 100 | phytotoxicity rating DIGSA ([19]; rate 63 g ai/ha): 0 | phytotoxicity rating DIGSA ([19]; rate 250 g ai/ha): 20 | phytotoxicity rating AMARE ([20]; rate 63 g ai/ha): 60 | phytotoxicity rating AMARE ([20]; rate 250 g ai/ha): 90 | phytotoxicity rating CASOB ([21]; rate 63 g ai/ha): 95 | phytotoxicity rating CASOB ([21]; rate 250 g ai/ha): 100 | phytotoxicity rating ABUTH ([22]; rate 63 g ai/ha): 100 | phytotoxicity rating ABUTH ([22]; rate 250 g ai/ha): 100 | crop damage rating CORN ([23]; rate 63 g ai/ha): 20 | crop damage rating CORN ([23]; rate 250 g ai/ha): 30 | crop damage rating RICE ([24]; rate 63 g ai/ha): 10 | crop damage rating RICE ([24]; rate 250 g ai/ha): 30 | crop damage rating SOY ([25]; rate 63 g ai/ha): 80 | crop damage rating SOY ([25]; rate 250 g ai/ha): 100
